Assay results from publication PMC9814792 (Communications Chemistry, 2022).

Key:
[1] = system: HCT116 and HCT116/OxR cells; assay: In vitro platinum cell uptake by ICP-MS; assay type: cell-based, human; settings: 3 h exposure
Procedure: Cells were seeded at 1.5 ×10^5 cells/well in six-well plates in 1.5 mL and after 24 h recovery treated with 500 µL of compounds at the indicated concentrations in triplicates. After 3 h drug exposure, cells were detached, washed twice with phosphate-buffered saline (PBS), dried at RT for 15 min and lysed in 100 µL HNO3 (69%, Rotipuran Supra, Carl Roth, Karlsruhe, Germany) for 1 h at RT. The lysate was added to fresh tubes containing 200 µL ddH2O. ICP-MS measurements were performed with an Agilent 8800 ICP-MS/MS instrument (Agilent Technologies, Tokyo, Japan). The sample introduction system consisted of a MicroMist nebulizer (200 μL min^−1 nominal sample uptake) and a quartz double-pass spray chamber. The instrument was tuned on a daily basis in order to achieve maximum sensitivity, low oxide formation, and low doubly charged ratios. Platinum was monitored in no gas mode with an integration time of 0.3 s. The flow injection measurements were performed with a bioinert HPLC 1260 (Agilent Technologies, Waldbronn, Germany), which was directly connected to the nebulizer of the ICP-MS/MS instrument with a PEEK tubing. The following chromatographic conditions were used: injection volume: 10 µL; flow rate: 0.30 mL min^-1; isocratic elution; CH3COONH4 (50 mM, pH = 6.8) aqueous solution was employed as mobile phase. The data were recorded and evaluated with the Agilent MassHunter Chromatography software package, MassHunter 4.6., 2019.

[2] = system: HCT116 and HCT116/OxR cells; assay: Cellular GSH content (GSH/GSSG-Glo); assay type: cell-based, human; settings: 24 h exposure, single agent
Procedure: GSH levels in HCT116 and HCT116/OxR cells (7.5 × 10^4 cells per well in 96-well plates, in triplicate), or in CT26 tumor tissues (25–50 mg/sample) were determined using the luminescence-based detection system GSH/GSSG-Glo^TM assay (Promega, Madison, WI) following the manufacturer’s recommendations. Quantifications are based on the comparison with a GSH standard curve delivered in the assay and normalized to the total protein content of the samples determined by the Micro BCA^TM protein assay kit (Thermo Scientific).

CT26 cells = assay: 72 h cell viability (MTT) assay; assay type: cell-based, murine; settings: CT26, 72 h
Procedure: (§1) Cells were seeded (3–4 ×10^3 cells/well) in 96-well plates in 100 µL and after 24 h recovery treated with 100 µL of compounds at the indicated concentrations in triplicates. After 72 h drug exposure cell viability was determined by 3-(4,5-dimethylthiazol-2-yl)-2,5-diphenyltetrazolium bromide (MTT)-vitality assay (EZ4U, Biomedica, Vienna, Austria) following the manufacturer’s recommendations, as published. Absorbance was measured at 450 nm (at 620 nm as reference) using the multimode plate reader Tecan Infinite 200 Pro (Zurich, Switzerland). Cytotoxicity was expressed as IC50 values calculated from full dose-response curves using the 4 parameter nonlinear regression model of GraphPad Prism 8 software (La Jolla, CA, USA).

A2780 cells = assay: 72 h cell viability (MTT) assay; assay type: cell-based, human; settings: A2780, 72 h continuous exposure; read-out: IC50 value (95% confidence interval)
Procedure: as §1

HCT116 cells = assay: 72 h cell viability (MTT) assay; assay type: cell-based, human; settings: HCT116, 72 h continuous exposure; read-out: IC50 value (95% confidence interval)
Procedure: as §1

[3] = Aqueous stability in phosphate buffer by UHPLC; assay type: physicochemical; settings: for UHPLC peak integral, stability: method A
Procedure: (§2) For stability measurements BSO-OxOAc (1 mM) was dissolved in phosphate buffer (100 mM, pH 7.4). For reduction experiments BSO-OxOAc (2 mM) was dissolved in phosphate buffer (500 mM, pH 7.4). A 20 mM solution of AA in the same buffer was added in a 1:1 ratio. The samples were immediately measured on a Dionex UltiMate 3000 RS UHPLC system equipped with a Waters Acquity UPLC® BEH C18 column (3×50 mm, pore size 1.7 µm), and absorption detection at 230 nm with incubation at 20 °C (Gradients: Method A: 0.0−0.5 min: 5% eluent B in eluent A; 0.5–5.5 min: 5-95% eluent B; 5.5–8.0 min: 95 % eluent B (eluent A = 0.1% formic acid in water, eluent B = 0.1 % formic acid in acetonitrile), method B: 0.0 − 0.5 min: 5% eluent B in eluent A; 0.5–5.5 min: 5-95% eluent B; 5.5–7.1 min: 95 % eluent B (eluent A = 0.1% formic acid in water, eluent B = 0.1 % formic acid in methanol). Data points were taken every 30 min for 6 h and at 24 h and 24.5 h.

HCT116/OxR cells = assay: 72 h cell viability (MTT) assay; assay type: cell-based, human
Procedure: Absorbance was measured at 450 nm (at 620 nm as reference) using the multimode plate reader Tecan Infinite 200 Pro (Zurich, Switzerland). Cytotoxicity was expressed as IC50 values calculated from full dose-response curves using the 4 parameter nonlinear regression model of GraphPad Prism 8 software (La Jolla, CA, USA).

albumin = biological target: T1, albumin (Bos taurus, UniProt P02769); assay: Albumin binding in fetal calf serum by SEC-ICP-MS; assay type: in vitro ADME; settings: fetal calf serum 37 °C, 100 μM
T1 construct: tissue Sigma-Aldrich; host or cells: fetal calf serum
Procedure: Fetal calf serum was purchased from Sigma-Aldrich and buffered with 150 mM phosphate buffer (pH 7.4) to guarantee a stable pH. The platinum(IV) complexes were dissolved in 150 mM phosphate buffer (pH 7.4) to 1 mM and diluted 1:10 in serum to obtain a final concentration of 100 μM. The samples were then incubated in the autosampler at 37 °C for 24 h and analyzed at 0 h, 1 h, 4 h, and 24 h. Between each sample, a pure water blank was measured. For SEC-ICP-MS measurements, an Agilent 1260 Infinity system coupled to an Agilent 7800 ICP-MS equipped with a dynamic reaction cell was used. Oxygen (purity 5.5, Messer AustriaGmbH, Gumpoldskirchen, Austria) was used as reaction gas at 30% and 0.9 L/min flow.

[4] = Reduction kinetics with 10-fold excess of ascorbic acid by UHPLC; assay type: physicochemical; settings: 10 mM AA; for UHPLC peak integral, reduction: method B
Procedure: as §2

T1 sequence (P02769 25-607): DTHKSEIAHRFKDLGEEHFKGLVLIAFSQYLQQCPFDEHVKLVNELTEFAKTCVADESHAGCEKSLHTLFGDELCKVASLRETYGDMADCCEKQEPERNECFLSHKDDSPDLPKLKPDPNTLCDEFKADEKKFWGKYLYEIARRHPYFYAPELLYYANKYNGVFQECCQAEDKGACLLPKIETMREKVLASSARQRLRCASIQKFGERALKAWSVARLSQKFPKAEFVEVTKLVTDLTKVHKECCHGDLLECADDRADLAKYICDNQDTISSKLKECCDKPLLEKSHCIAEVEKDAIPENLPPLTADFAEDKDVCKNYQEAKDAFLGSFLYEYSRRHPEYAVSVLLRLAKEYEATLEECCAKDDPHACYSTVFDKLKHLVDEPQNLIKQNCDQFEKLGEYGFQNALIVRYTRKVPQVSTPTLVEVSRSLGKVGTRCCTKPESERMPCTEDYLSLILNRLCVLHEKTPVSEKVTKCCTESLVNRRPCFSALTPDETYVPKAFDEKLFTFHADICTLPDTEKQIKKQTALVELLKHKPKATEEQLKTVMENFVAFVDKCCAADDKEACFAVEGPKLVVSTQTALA

SMILES: CCCCS(=N)(=O)CCC(NC(=O)[O][Pt]1([O]C(C)=O)[O]C(=O)C(=O)[O]1)C(=O)O.NC1CCCCC1N (mixture of isomers) [BSO-OxOAc, (OC-6-34)-Acetato(((1 S)-3-(butylsulfonimidoyl)-1-carboxypropyl)carbamato)((1 R,2 R)-1,2-cyclohexanediamino)oxalatoplatinum(IV)]
- intracellular accumulation in HCT116/OxR as compared to parental HCT116 [1]: only non-significantly altered
- overall cellular platinum accumulation compared between compounds ([1]; both cell models): distinctly lower than of oxaliplatin
- impact on cellular GSH content [2]: moderately
- higher IC50 value as compared to oxaliplatin (CT26 cells): > 58 fold
- IC50 (A2780 cells): 20.6 µM
- IC50 (HCT116 cells): 32.1 µM
- calculated half-life, aqueous stability ([3]; 1 mM, 100 mM phosphate buffer pH 7.4, 20 °C): ~ 240 h
- UHPLC peak integral, stability ([3]; t=0, 1 mM): 70.47 mAU
- UHPLC peak integral, stability ([3]; t=24 h, 1 mM): 66.25 mAU
- IC50 (HCT116/OxR cells; HCT116/OxR, 72 h continuous exposure, read-out: IC50 value (95% confidence interval)): 95.5 µM
- resistance factor (HCT116/OxR cells; IC50 HCT116/OxR divided by IC50 HCT116): 2.9
- bound to albumin fraction (albumin; t 0 h): 0%
- free (low molecular weight fraction) (albumin; t 0 h): 100%
- bound to albumin fraction (albumin; t 1 h): 0%
- free (low molecular weight fraction) (albumin; t 1 h): 100%
- bound to albumin fraction (albumin; t 4 h): 0%
- free (low molecular weight fraction) (albumin; t 4 h): 100%
- bound to albumin fraction (albumin; t 24 h): 0%
- free (low molecular weight fraction) (albumin; t 24 h): 100%
- t½ reduction kinetics ([4]; 1 mM complex, 500 mM phosphate buffer pH 7.4, 20 °C): ~ 51 h
- UHPLC peak integral, reduction ([4]; t=0, 1 mM): 11.87 mAU
- UHPLC peak integral, reduction ([4]; t=24 h, 1 mM): 9.1 mAU
